Test results reported in ChEMBL document CHEMBL1129049, “Structure-activity analysis of anandamide analogs: relationship to a cannabinoid pharmacophore” (1996).

How the values were obtained:
Mus musculus [1] = species: Mus musculus; experiment: Effective dose required to increase tail-flick latency in mice; format: functional
Mus musculus [2] = species: Mus musculus; experiment: Effective dose required to inhibit spontaneous locomotor activity in mice; format: functional

CCCCC/C=C\C/C=C\C/C=C\C/C=C\CCCC(=O)NCCCCCO
ED50 (Mus musculus [1]): 72.9 µmol/kg | ED50 (Mus musculus [2]): 49.5 µmol/kg

CCCCC/C=C\C/C=C\C/C=C\C/C=C\CCCC(=O)NCCCO
ED50 (Mus musculus [1]): 61.4 µmol/kg | ED50 (Mus musculus [2]): 43.7 µmol/kg

CCCCC/C=C\C/C=C\C/C=C\C/C=C\CCCC(=O)NCCOc1ccccc1
ED50 (Mus musculus [1]): 74.1 µmol/kg | ED50 (Mus musculus [2]): 23 µmol/kg

CCCCC/C=C\C/C=C\C/C=C\C/C=C\CCC(C)(C)C(=O)NCCO
ED50 (Mus musculus [1]): 49.6 µmol/kg | ED50 (Mus musculus [2]): 30.5 µmol/kg

CCCCC/C=C\C/C=C\C/C=C\C/C=C\CCCC(=O)N1CCOCC1
ED50 (Mus musculus [1]): 25.4 µmol/kg | ED50 (Mus musculus [2]): 20.7 µmol/kg

CCCCC/C=C\C/C=C\C/C=C\C/C=C\CCCC(=O)NCCF
ED50 (Mus musculus [1]): 190 µmol/kg | ED50 (Mus musculus [2]): 57.2 µmol/kg

CCCCC/C=C\C/C=C\C/C=C\C/C=C\CCCC(=O)NCCOC
ED50 (Mus musculus [2]): 186 µmol/kg

CCCCC/C=C\C/C=C\C/C=C\C/C=C\CCCC(=O)NCCO [ANANDAMIDE]
ED50 (Mus musculus [1]): 17.4 µmol/kg | ED50 (Mus musculus [2]): 50.3 µmol/kg
